Literature values as cited in patent US9000165B2 (priority 2011, dated 2015).

Key:
[1] = upon exposure to moisture converts into the hydrate form
[2] = target: serotonin 5-HT2A receptors (Homo sapiens, UniProt P28223)
histamine H1 receptors = histamine H1 receptors (Homo sapiens, UniProt P35367)
[3] = system: α1-adrenaline agonist receptors
serotonin reuptake sites = serotonin reuptake sites (Homo sapiens, UniProt P31645)
[4] = target: T1, serotonin 5-HT1A receptors (Homo sapiens, UniProt P08908)
T1 sequence (P08908 1-422): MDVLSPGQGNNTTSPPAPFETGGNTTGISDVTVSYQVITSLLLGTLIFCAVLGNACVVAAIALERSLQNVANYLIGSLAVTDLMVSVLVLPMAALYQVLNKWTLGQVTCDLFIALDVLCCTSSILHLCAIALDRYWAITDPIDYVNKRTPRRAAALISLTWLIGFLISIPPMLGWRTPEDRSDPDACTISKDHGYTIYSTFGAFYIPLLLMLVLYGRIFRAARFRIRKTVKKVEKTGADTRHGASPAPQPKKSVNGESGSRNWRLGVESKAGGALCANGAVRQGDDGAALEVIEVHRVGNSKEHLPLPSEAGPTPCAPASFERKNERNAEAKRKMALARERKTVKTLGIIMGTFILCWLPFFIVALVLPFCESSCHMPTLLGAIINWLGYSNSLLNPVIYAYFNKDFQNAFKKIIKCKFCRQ

[5] = system: cholinergic muscarinic receptors
[6] = target: T2, serotonin 5-HT2C receptors (Homo sapiens, UniProt P28335)
T2 sequence (P28335 33-458): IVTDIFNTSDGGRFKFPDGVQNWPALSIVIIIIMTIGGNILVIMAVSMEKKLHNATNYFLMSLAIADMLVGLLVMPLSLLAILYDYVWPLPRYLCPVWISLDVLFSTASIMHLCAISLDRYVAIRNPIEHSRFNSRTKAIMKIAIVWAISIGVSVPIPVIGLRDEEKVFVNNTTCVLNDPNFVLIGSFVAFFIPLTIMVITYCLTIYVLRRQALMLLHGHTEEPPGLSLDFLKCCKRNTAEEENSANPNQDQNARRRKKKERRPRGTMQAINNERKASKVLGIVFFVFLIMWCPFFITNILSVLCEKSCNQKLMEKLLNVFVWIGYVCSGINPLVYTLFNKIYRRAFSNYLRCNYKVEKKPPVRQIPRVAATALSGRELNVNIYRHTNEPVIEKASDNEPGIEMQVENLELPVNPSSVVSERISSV

Sequence of histamine H1 receptors (P35367 whole entry): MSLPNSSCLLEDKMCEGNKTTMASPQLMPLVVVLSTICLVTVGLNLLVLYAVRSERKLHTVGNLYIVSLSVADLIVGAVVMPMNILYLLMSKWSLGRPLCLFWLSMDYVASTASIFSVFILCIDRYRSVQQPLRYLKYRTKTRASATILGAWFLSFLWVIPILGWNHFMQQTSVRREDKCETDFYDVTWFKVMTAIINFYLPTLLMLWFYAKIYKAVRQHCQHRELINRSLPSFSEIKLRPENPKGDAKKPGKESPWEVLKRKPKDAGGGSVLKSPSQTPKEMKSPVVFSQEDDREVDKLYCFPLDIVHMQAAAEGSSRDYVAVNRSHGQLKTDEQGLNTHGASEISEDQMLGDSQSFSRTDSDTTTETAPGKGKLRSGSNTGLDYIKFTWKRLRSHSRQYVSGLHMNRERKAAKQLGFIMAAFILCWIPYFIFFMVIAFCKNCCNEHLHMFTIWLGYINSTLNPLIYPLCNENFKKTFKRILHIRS
Sequence of serotonin 5-HT2A receptors (P28223 whole entry): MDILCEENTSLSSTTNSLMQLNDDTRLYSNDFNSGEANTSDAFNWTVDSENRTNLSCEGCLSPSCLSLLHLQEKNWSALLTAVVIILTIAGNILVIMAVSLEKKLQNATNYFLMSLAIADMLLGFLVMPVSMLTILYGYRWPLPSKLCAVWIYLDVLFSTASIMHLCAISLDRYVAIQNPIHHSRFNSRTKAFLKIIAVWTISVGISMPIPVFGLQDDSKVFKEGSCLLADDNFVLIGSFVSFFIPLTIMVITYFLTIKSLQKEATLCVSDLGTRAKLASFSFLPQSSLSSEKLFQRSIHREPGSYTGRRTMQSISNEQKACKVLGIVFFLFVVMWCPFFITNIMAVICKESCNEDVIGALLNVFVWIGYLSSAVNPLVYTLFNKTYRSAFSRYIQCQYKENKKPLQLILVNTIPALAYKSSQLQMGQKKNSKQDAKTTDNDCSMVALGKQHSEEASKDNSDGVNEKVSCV
Sequence of serotonin reuptake sites (P31645 whole entry): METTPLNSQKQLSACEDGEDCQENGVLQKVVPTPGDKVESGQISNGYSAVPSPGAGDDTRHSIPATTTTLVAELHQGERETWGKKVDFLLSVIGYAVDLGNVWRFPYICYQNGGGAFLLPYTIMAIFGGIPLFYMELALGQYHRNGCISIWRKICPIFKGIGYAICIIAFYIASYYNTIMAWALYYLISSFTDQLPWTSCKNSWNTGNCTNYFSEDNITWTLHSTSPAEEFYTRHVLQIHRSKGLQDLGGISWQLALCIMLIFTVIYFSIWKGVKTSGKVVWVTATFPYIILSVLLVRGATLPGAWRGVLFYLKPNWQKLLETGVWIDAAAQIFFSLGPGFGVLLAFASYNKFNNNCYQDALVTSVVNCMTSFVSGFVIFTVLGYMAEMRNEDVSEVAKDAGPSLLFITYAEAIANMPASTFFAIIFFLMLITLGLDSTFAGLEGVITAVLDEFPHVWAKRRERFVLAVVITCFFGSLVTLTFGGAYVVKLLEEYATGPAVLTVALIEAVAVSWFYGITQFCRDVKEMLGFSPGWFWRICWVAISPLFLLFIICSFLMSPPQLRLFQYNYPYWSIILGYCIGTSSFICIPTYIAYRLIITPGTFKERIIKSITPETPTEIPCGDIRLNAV

Row | SMILES | hygroscopic property [1] | affinity for serotonin 5-HT2A receptors [2] | affinity for histamine H1 receptors (histamine H1 receptors) | affinity for α1-adrenaline agonist receptors [3] | affinity for serotonin reuptake sites (serotonin reuptake sites) | affinity for serotonin 5-HT1A receptors [4] | affinity for cholinergic muscarinic receptors [5] | affinity for serotonin 5-HT2C receptors [6]
1 | O=C1CCc2ccc(OCCCCN3CCN(c4cccc(Cl)c4Cl)CC3)cc2N1 [anhydrous aripiprazole crystal form I, Aripiprazole] | significant hygroscopic property |  |  |  |  |  |  | 
2 | O=C1CCc2ccc(OCCCCN3CCN(c4cccc(Cl)c4Cl)CC3)cc2N1 [Aripiprazole] |  | potent affinity | mild affinity | mild affinity | mild affinity | potent affinity | no detectable affinity | mild affinity
